From patent publication US7928139B2 (Amgen Inc., priority 2006, dated 2011) come the findings set out here.

HIF PHD2, sequence (Q9GZT9 whole entry): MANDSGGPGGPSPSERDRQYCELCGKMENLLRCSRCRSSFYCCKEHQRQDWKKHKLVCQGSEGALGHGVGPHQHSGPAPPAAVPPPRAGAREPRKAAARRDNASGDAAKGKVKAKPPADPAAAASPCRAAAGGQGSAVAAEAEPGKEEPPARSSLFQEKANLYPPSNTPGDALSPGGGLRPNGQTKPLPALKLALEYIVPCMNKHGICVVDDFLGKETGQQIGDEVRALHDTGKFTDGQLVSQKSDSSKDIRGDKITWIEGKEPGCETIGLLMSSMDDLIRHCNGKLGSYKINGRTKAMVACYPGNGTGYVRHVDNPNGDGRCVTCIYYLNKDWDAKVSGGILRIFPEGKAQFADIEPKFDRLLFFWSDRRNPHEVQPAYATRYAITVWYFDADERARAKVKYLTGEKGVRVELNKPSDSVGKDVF

The test has as its target HIF PHD2 (Homo sapiens, UniProt Q9GZT9). Briefly: PHD2 inhibition assay (TR-FRET, VCB-Eu detection of hydroxylated P564-HIF1α peptide). Format: biochemical. The note with it: 2 nM PHD2, 100 nM P564-HIF1α peptide, 0.25 μM 2-oxoglutarate, 100 μM FeCl2, 2 mM ascorbic acid. As to the method:
Inhibition of HIF PHD2 activity was quantified utilizing the TR-FRET technology. HIF PHD2 catalyzes a hydroxyl modification on the proline residue of the P564-HIF1α peptide substrate (Biotin-DLEMLAPYIPMDDDFQL (SEQ ID NO: 7)) resulting in recognition and binding of the europylated Von Hippel-Lindau protein (pVHL), elongin B and elongin C heterotrimeric (VCB-Eu) complex.
The PHD2 inhibition assay was executed by addition of freshly dissolved FeCl2 to 178.57 μM (100 μM final concentration) in PHD2 Reaction Buffer containing 30 mM MES, pH 6, 10 mM NaCl, 0.25% Brij-35, 0.01% BSA, and 1% DMSO. 28 μL of the iron solution and 2 μL of inhibitor compounds serially diluted in 100% DMSO (5% DMSO final) were added to black polypropylene 96-well microtiter plates. To that, 10 μL of 10 nM PHD2 (2 nM final) was added to all wells of the plate except for the 8 wells of column 12 (LO control), and allowed to incubate at room temperature on the shaker for one hour. Column 6 was the HI control containing PHD2 enzyme and 5% DMSO vehicle, but no inhibitor compound. To initiate the PHD2 enzymatic reaction, 10 μL of a solution containing 500 nM P564-HIF1α peptide (100 nM final), 10 mM ascorbic acid (2 mM final), and 1.25 μM 2-oxoglutarate (α-ketoglutarate; 0.25 μM final) in PHD2 Reaction Buffer was added to all wells of the plate and allowed to incubate on the shaker at room temperature for one hour.
The reaction was terminated by addition of 25 μL TR-FRET Buffer (50 mM TRIS-HCl, pH 9, 100 mM NaCl, 0.05% BSA, and 0.5% Tween-20) containing 150 mM succinate (product inhibitor; 50 mM final), 75 nM streptavidin-APC (25 nM final), and 7.5 nM VCB-Eu (2.5 nM final). The TR-FRET detection reagents were placed on a shaker for 1 hour to reach binding equilibrium before reading on the Discovery platform (PerkinElmer). Europium is excited at 315 nm and phosphoresces at 615 nm with a large Stoke's shift. APC, in turn, emits at 655 nm upon excitation at 615 nm. The TR-FRET signal is measured as the ratio of the APC 655 nm signal divided by the internal europium reference 615 nm emission signal.
The POC (percentage of control) was determined by comparing the signal from hydroxylated peptide substrate in the enzyme reaction containing inhibitor compound with that from PHD2 enzyme with DMSO vehicle alone (HI control), and no enzyme (LO control). POC was calculated using the formula: % control (POC)=(cpd−average LO)/(average HI−average LO)*100. Data (consisting of POC and inhibitor concentration in μM) was fitted to a 4-parameter equation (y=A+((B−A)/(1+((x/C)^D))), where A is the minimum y (POC) value, B is the maximum y (POC), C is the x (cpd concentration) at the point of inflection and D is the slope factor) using a Levenburg-Marquardt non-linear regression algorithm.
As usually defined, the IC50 is the point on the concentration scale where inhibition reaches its midpoint. Higher therefore signals weaker potency in that assay. The molecule `C[C@H](NC(=O)C1=C(O)c2ccc(Br)cc2C(C)(C)C1=O)C(=O)O` [Example 50, N-((7-Bromo-4-hydroxy-1,1-dimethyl-2-oxo-naphthalen-3-yl)carbonyl)-L-alanine] gave an IC50 of 100 to 500 nM. The value for `CC1(C)C(=O)C(C(=O)NCC(=O)O)=C(O)c2ccc(-c3cccnc3)cc21` [Example 51, N-((7-(3-Pyridyl)-4-hydroxy-1,1-dimethyl-2-oxo-naphthalene-3-yl)carbonyl)glycine] was < 100 nM; that for `CC1(C)C(=O)C(C(=O)NCC(=O)O)=C(O)c2ccc(-c3ccccc3)cc21` [Example 52, N-((7-Phenyl-4-hydroxy-1,1-dimethyl-2-oxo-naphthalen-3-yl)carbonyl)glycine] was 100 to 500 nM. For the molecule `CC1(C)C(=O)C(C(=O)NCC(=O)O)=C(O)c2ccc(Br)cc21` [Example 53, N-((7-Bromo-4-hydroxy-1,1-dimethyl-2-oxo-naphthalen-3-yl)carbonyl)glycine], the IC50 was < 100 nM. As for `CC(C)(NC(=O)C1=C(O)c2cc(Cl)ccc2C2(CCOCC2)C1=O)C(=O)O` [Example 54, N-((6-Chloro-4-hydroxy-2-oxo-2′,3′,5′,6′-tetrahydro-spiro[naphthalene-1,4′-pyran]-3-yl)carbonyl)-2-methylalanine], the IC50 is > 10000 nM. The result for `C[C@H](NC(=O)C1=C(O)c2cc(Cl)ccc2C2(CCOCC2)C1=O)C(=O)O` [Example 55, N-((6-Chloro-4-hydroxy-2-oxo-2′,3′,5′,6′-tetrahydro-spiro[naphthalene-1,4′-pyran]-3-yl)carbonyl)-L-alanine] reads 100 to 500 nM; that for `C[C@@H](NC(=O)C1=C(O)c2cc(Cl)ccc2C2(CCOCC2)C1=O)C(=O)O` [Example 56, N-((6-Chloro-4-hydroxy-2-oxo-2′,3′,5′,6′-tetrahydro-spiro[naphthalene-1,4′-pyran]-3-yl)carbonyl)-D-alanine], > 10000 nM; that for `CC1(C)C(=O)C(C(=O)NCC(=O)O)=C(O)c2cc(Cl)cc(F)c21` [Example 57, N-((6-Chloro-8-fluoro-4-hydroxy-1,1-dimethyl-2-oxo-naphthalen-3-yl)carbonyl)glycine], < 100 nM. `O=C(O)CNC(=O)C1=C(O)c2cc(F)c(F)cc2C2(CCOCC2)C1=O` [Example 58, N-((6,7-Difluoro-4-hydroxy-2-oxo-2′,3′,5′,6′-tetrahydro-spiro[naphthalene-1,4′-pyran]-3-yl)carbonyl)glycine]: the IC50 was < 100 nM.

As for `CC1(C)C(=O)C(C(=O)NCC(=O)O)=C(O)c2cc(F)c(F)cc21` [Example 59, N-((6,7-Difluoro-4-hydroxy-1,1-dimethyl-2-oxo-naphthalen-3-yl)carbonyl)glycine], the IC50 was < 100 nM. `O=C(O)CNC(=O)C1=C(O)c2cc(Cl)ccc2C2(CCCCC2)C1=O` [Example 60, N-((6′-Chloro-4′-hydroxy-2′-oxo-spiro[cyclohexane-1,1′-naphthalen]-3′-yl)carbonyl)glycine] gave an IC50 of 100 to 500 nM. Regarding `Cc1ccc2c(c1)C(O)=C(C(=O)NCC(=O)O)C(=O)C2(C)C` [Example 61, N-((6-Methyl-4-hydroxy-1,1-dimethyl-2-oxo-naphthalen-3-yl)carbonyl)glycine], the IC50 is < 100 nM. The value for `O=C(O)CNC(=O)C1=C(O)c2cc(Cl)c(Cl)cc2C2(CCOCC2)C1=O` [Example 62, N-((6,7-Dichloro-4-hydroxy-2-oxo-2′,3′,5′,6′-tetrahydro-spiro[naphthalene-1,4′-pyran]-3-yl)carbonyl)glycine] was < 100 nM; that for `CC1(C)C(=O)C(C(=O)NCC(=O)O)=C(O)c2ccccc21` [Example 63, N-((4-Hydroxy-1,1-dimethyl-2-oxo-naphthalen-3-yl)carbonyl)glycine] was < 100 nM; that for `CC1(C)C(=O)C(C(=O)NCC(=O)O)=C(O)c2cc(Cl)c(Cl)cc21` [Example 64, N-((6,7-Dichloro-4-hydroxy-1,1-dimethyl-2-oxo-naphthalen-3-yl)carbonyl)glycine] was < 100 nM. As for `Cc1ccccc1-c1ccc2c(c1)C(O)=C(C(=O)NCC(=O)O)C(=O)C2(C)C` [Example 65, N-((6-(2-Methylphenyl)-4-hydroxy-1,1-dimethyl-2-oxo-naphthalen-3-yl)carbonyl)glycine], the IC50 is 500 to 1000 nM.

Molecule `C[C@H](NC(=O)C1=C(O)c2cc(Cl)ccc2C(C)(C)C1=O)C(=O)O` [Example 66, N-((6-Chloro-4-hydroxy-1,1-dimethyl-2-oxo-naphthalen-3-yl)carbonyl)-L-alanine] showed an IC50 of 100 to 500 nM.

Molecule `O=C(O)CNC(=O)C1=C(O)c2cc(-c3ccccc3)ccc2C2(CCCC2)C1=O` [Example 67, N-((4′-Hydroxy-2′-oxo-6′-phenyl-spiro[cyclopentane-1,1′-naphthalen]-3′-yl)carbonyl)glycine] returned an IC50 of 1000 to 10000 nM. The molecule `CC1(C)C(=O)C(C(=O)NCC(=O)O)=C(O)c2cc(-c3ccccc3)ccc21` [Example 68, N-((6-Phenyl-4-hydroxy-1,1-dimethyl-2-oxo-naphthalen-3-yl)carbonyl)glycine] displayed an IC50 of 500 to 1000 nM.

For `O=C(O)CNC(=O)C1=C(O)c2ccccc2C2(CCN(Cc3ccccc3)CC2)C1=O` [Example 69, N-((4-Hydroxy-2-oxo-2′,3′,5′,6′-tetrahydro-N-benzyl-spiro[naphthalene-1,4′-piperidine]-3-yl)carbonyl)glycine], the IC50 was < 100 nM. As for `O=C(O)CNC(=O)C1=C(O)c2ccccc2C2(CCNCC2)C1=O` [Example 70, N-((4-Hydroxy-2-oxo-2′,3′,5′,6′-tetrahydro-spiro[naphthalene-1,4′-piperidine]-3-yl)carbonyl)glycine], the IC50 was 100 to 500 nM.

As for `O=C(O)CNC(=O)C1=C(O)c2cc(Cl)ccc2C2(CCN(Cc3ccccc3)CC2)C1=O` [Example 71, N-((6-Chloro-4-hydroxy-2-oxo-2′,3′,5′,6′-tetrahydro-N-benzyl-spiro[naphthalene-1,4′-piperidine]-3-yl)carbonyl)glycine], the IC50 was < 100 nM. Consider `O=C(O)CNC(=O)C1=C(O)c2cc(Cl)ccc2C2(CCCO2)C1=O` (centres unmarked) [Example 72, N-((6′-Chloro-4′-hydroxy-2′-oxo-4,5-dihydro-spiro[furan-2,1′-naphthalen]-3′-yl)carbonyl)glycine], for which the IC50 is < 100 nM.

In the case of `O=C(O)CNC(=O)C1=C(O)c2cc(Cl)ccc2[C@@]2(CCCO2)C1=O` [Example 73, N-(((2S)-6′-Chloro-4′-hydroxy-2′-oxo-4,5-dihydro-spiro[furan-2,1′-naphthalen]-3′-yl)carbonyl)glycine], the concentration for half-maximal inhibition (IC50) was < 100 nM. Take `O=C(O)CNC(=O)C1=C(O)c2cc(Cl)ccc2[C@]2(CCCO2)C1=O` [Example 74, N-(((2R)-6′-Chloro-4′-hydroxy-2′-oxo-4,5-dihydro-spiro[furan-2,1′-naphthalen]-3′-yl)carbonyl)glycine]: the IC50 was in the range of 100 to 500 nM. Take `O=C(O)CNC(=O)C1=C(O)c2cc(Cl)ccc2C2(CCCOC2)C1=O` (centres unmarked) [Example 75, N-((6-Chloro-4-hydroxy-2-oxo-5′,6′-dihydro-spiro[naphthalene-1,3′-pyran]-3-yl)carbonyl)glycine]: the IC50 was < 100 nM.

In turn, `O=C(O)CNC(=O)C1=C(O)c2cc(Cl)ccc2[C@]2(CCCOC2)C1=O` [Example 76, N-(((1S)-6-Chloro-4-hydroxy-2-oxo-5′,6′-dihydro-spiro[naphthalene-1,3′-pyran]-3-yl)carbonyl)glycine] registered an IC50 of 100 to 500 nM. Take `O=C(O)CNC(=O)C1=C(O)c2cc(Cl)ccc2[C@@]2(CCCOC2)C1=O` [Example 77, N-(((1R)-6-Chloro-4-hydroxy-2-oxo-5′,6′-dihydro-spiro[naphthalene-1,3′-pyran]-3-yl)carbonyl)glycine]: the IC50 is < 100 nM.

For `CC[C@]1(C)C(=O)C(C(=O)NCC(=O)O)=C(O)c2cc(Cl)ccc21` [Example 79, N-(((1S)-6-Chloro-4-hydroxy-1-ethyl-1-methyl-2-oxo-naphthalen-3-yl)carbonyl)glycine], the IC50 was 100 to 500 nM.
